Measured values from US8247383B2, “Drug-carrier complexes and methods of use thereof” (The General Hospital Corporation, priority 1999, dated 2012).
Where two headings read alike, the source gives them in different places. d = 2'-deoxy (DNA); r = 2'-OH (RNA)

Experiments:
[1] = test system: antifluorescein rabbit IgG; assay: Steric protection: kinetics of fluorescein quenching by anti-fluorescein IgG; type: binding; details: polymer chains positioned within 2 and 9 bases of fluorescein; 10-fold anti-fluorescein IgG, 20 mM PBS, pH=7.5
Procedure: To determine the degree of steric protection of the nucleotide core by polymer chains, a series of double-stranded oligonucleotides were synthesized. A model antigen (fluorescein) and a model protective chain (polyethyleneglycol) were positioned on the oligonucleotide at various distances. Then kinetics of fluorescein moiety interactions with fluorescence-quenching antifluorescein rabbit IgG (Molecular Probes, Oreg.) was determined to evaluate the degree of steric protection. The latter was investigated as a function of the distance between the antigen and the protective chain. Four 5′-amino modified oligonucleotides with the same sequence 5′-TTT-CTC-TCT-CTC-TCT-CTC-TCT-3′ (SEQ ID NO: 5) were obtained from a commercial source. […]
The resultant double-stranded oligonucleotides were purified by SEC HPLC and modified, through the 5′-aminogroup of the first strand, with N-hydroxysuccinimide ester of carboxy-polyethyleneglycol (MW=2 kDa and 20 kDa), and with N-hydroxysuccinimide ester of branched “PEG2” polyethyleneglycol (10 kDa). […] Fluorescein—antibody interaction was registered by quenching of the fluorescein fluorescence by the antibody. Fluorescence was registered at 515 nm (excitation at 490 nm). The kinetics of fluorescence quenching depended on the position of the fluorescein moiety relative to the polymer chain.

[2] = cited from earlier work
outbred mice [3] = assay: Adduct toxicity in vivo; details: observed for 30 days
Procedure: Adduct toxicity in vivo. […] Bis-intercalator content was one molecule per 6 base pairs of the nucleotide core. […] The adduct and free bis-intercalator were administered intravenously, as described above, into male outbred mice (30±2 g, n=4 per group) at 30 mg/kg by bis-intercalator. In a third group, unloaded carrier was injected at 100 mg/kg within 15 minutes after the administration of 30 mg/kg of bis-doxorubicin.

[4] = Lyophilization and reconstitution in PBS with membrane filtration; type: physicochemical; details: one milligram by doxorubicin in 0.1 ml of 50 mM PBS, pH=7
Procedure: The adducts obtained as described in Examples 2 and 3 were used in a lyophilized form. Doxorubicin powder (Sigma Chemical Co., St. Louis, Mo.) and lyophilized “Doxorubicin for injection” were used as control preparations. Each of the four preparations, in the amount of one milligram by doxorubicin, were suspended in 0.1 ml of a 50 mM PBS, pH=7. […] The resultant solutions oligonucleotide-doxorubicin adduct solutions were filtered through […] PTFE membrane filters; doxorubicin was recovered in the filtrates with at least 98% yield (by adsorption at 470 nm).

[5] = Doxorubicin biodistribution (14C tissue radioactivity); type: in vivo, mice; details: 0.3 mg/kg via tail vein, 20 hours after injection
Procedure: (^14C)doxorubicin-loaded carriers (Example 12) and free (^14C)doxorubicin (control) were injected into normal outbred mice (males, 30 g) via tail vein, at 0.3 mg/kg. Biodistribution was studied by measuring tissue radioactivity 20 hours after injection. Tissue samples were disintegrated, solubilized, mixed with a scintillation cocktail and counted on a scintillation counter.

[6] = test system: human epithelial cells (kidney, line 293); assay: Carrier and adduct toxicity in cell culture (Trypan Blue staining); type: cell-based; details: control experiment, confluent and growing cultures
Procedure: Carrier toxicity in cell culture. Unloaded carriers (Example 7) were tested in near confluent culture of human epithelial cells (kidney, line 293, from ATCC #CRL 1573) in DMEM with 5% calf serum. Carriers were added to the cell culture at various concentrations, from 1 mg/ml to 1 mg/ml. Cell survival rate was determined by staining with Trypan Blue after a 16-hour incubation.
Adduct toxicity in cell culture. Doxorubicin-loaded carriers (Example 12) were tested in near confluent and growing cultures of human epithelial cells (kidney, line 293) in DMEM containing 5% calf serum. […] Cell survival rate was determined by staining with Trypan Blue after a 16-hour incubation.

outbred mice [7] = assay: Carrier toxicity in vivo; details: 100 mg/kg intravenously, observed for 30 days
Excerpt: Carrier toxicity in vivo.

[8] = Carrier biokinetics (3H-labeled carriers, blood); type: in vivo; details: 1 mg/kg via tail vein, mice
Procedure: Unloaded carriers (Example 8) were labeled with tritium (^3H). Carriers were oxidized with periodate to produce aldehyde groups on the 3′-ribonucleotide base present in the structure, and reacted with [^3H] borohydride to introduce tritium into carrier core structure. Carriers were purified on Sephadex G-25 and injected at 1 mg/kg into normal outbred mice (males, 30 g) via tail vein. Blood samples were collected at different time points and counted. The blood half-lives were ca. 30 min and 10 hours for unprotected and PHF-protected carriers, respectively.

[9] = type: physicochemical
Procedure: An oligonucleotide with arbitrarily chosen […] sequence, 5′CGTCGACGTCGAATATACGC (SEQ ID NO: 3), and a complementary 5′-amino modified oligonucleotide 5′GC GTA TAT TCG ACG TCG ACG (SEQ ID NO: 4) were purchased from a commercial vendor. To form a double stranded oligonucleotide, the single-stranded oligonucleotides were hybridized and lyophilized as described in Example 1. The resultant double stranded oligonucleotide was stable at ambient (25° C.) and body temperature (37° C.).

[10] = design: species or system mice; details: mouse, in vivo, iv
Procedure: An arbitrarily chosen 5-amino modified 18-base phosphodiester oligonucleotide 5° […] (SEQ ID NO: 11), 0.11 mg, was modified with trace amount of ethylenediaminetraacetic anhydride and hybridized with (a) a complementary oligonucleotide, 5′[…] (SEQ ID NO: 12), and (b) analogous complementary oligonucleotide amino modified at both 5′ and 3′ ends and at positions 4, 9 and 15 (from 5′). The hybridized amino modified DSO was incubated with 1 ml of 10 mg/ml solution of N-hydroxycuccinimido-polyethyleneglycol, MW=10 kDa, at pH=8 for 8 hours. The products, PEG-modified double stranded oligonucleotides, were isolated by HPLC. Both PEG-modified and unmodified double stranded oligonucleotides were labeled with 111 in 0.5 M citrate buffer solution, pH=5.6. Labeled preparations were purified by SEC HPLC. Each was divided into 4 equal doses and administered intravenously to outbred mice (n=4 in each group, male, 31±2 g). Blood samples were taken immediately after injection, then at 0.25, 0.5, 1, 2, 4 and 8 hours.

2 kDa polymer: fluorescein-labeled double-stranded oligonucleotide (SEQ ID NO: 5/6) modified at 5′-amino group with 2 kDa polyethyleneglycol (chain 1 TTTCTCTCTCTCTCTCTCTCT; chain 2 AGAGAGAGAGAGAGAGAGAAAA; fluorescein, 2 kDa PEG, chemistry not fully specified)
decrease of the kinetic constant of fluorescein-antibody interaction [1]: 20%

20 kDa polymer: fluorescein-labeled double-stranded oligonucleotide (SEQ ID NO: 5/6) modified at 5′-amino group with 20 kDa polyethyleneglycol (chain 1 TTTCTCTCTCTCTCTCTCTCT; chain 2 AGAGAGAGAGAGAGAGAGAAAA; 5'-amino linked 20 kDa PEG, fluorescein on an internal base, further chemistry not given here)
decrease of the kinetic constant of fluorescein-antibody interaction [1]: 80%

C[C@H](CNCCNC[C@@H](C)N1C(=O)c2cccc3cc([N+](=O)[O-])cc(c23)C1=O)N1C(=O)c2cccc3cc([N+](=O)[O-])cc(c23)C1=O [DMP 840]
solubility at physiological pH [2]: limited solubility

COc1cccc2c1C(=O)c1c(O)c3c(c(O)c1C2=O)C[C@@](O)(C(C)=O)C[C@@H]3O[C@H]1C[C@H](NCc2ccc(CN[C@H]3C[C@H](O[C@H]4C[C@](O)(C(C)=O)Cc5c(O)c6c(c(O)c54)C(=O)c4c(OC)cccc4C6=O)O[C@@H](C)[C@H]3O)cc2)[C@H](O)[C@H](C)O1 [WP-631]
solubility at physiological pH [2]: limited solubility | survival (outbred mice [3]; 30 mg/kg bis-doxorubicin, then unloaded carrier 100 mg/kg within 15 minutes): all animals survived | survival (outbred mice [3]; 30 mg/kg by bis-intercalator intravenously, n=4 per group): only one animal survived

COc1cccc2c1C(=O)c1c(O)c3c(c(O)c1C2=O)C[C@@](O)(C(=O)CO)C[C@@H]3O[C@H]1C[C@H](N)[C@H](O)[C@H](C)O1 [doxorubicin, Doxorubicin]
solubility at physiological pH [2]: limited solubility | dissolution on suspending the preparation [4]: formed suspensions | label distribution to liver [5]: 3±0.6 % dose/g | label distribution to lung [5]: 4.6±1.6 % dose/g | label content in skeletal muscle ([5]; mean±standard deviation): 2±0.4 % dose/g | cytotoxic effects compared with doxorubicin-loaded carriers [6]: essentially the same cytotoxic effects

PHF-protected carriers: amino modified double-stranded oligonucleotide (SEQ ID NO: 9/8) conjugated with 10 kDa PHF (chain 1 ATGGCGCACGCTGGGAGAC; chain 2 TCTCCCAGCGTGCGCCATC; sugars from the 5' end d18 r1, backbone and methylation of C not given here; amino modifications at positions 1, 2, 12, 19 of first strand, PHF polymer conjugated)
signs of toxicity (outbred mice [7]): None of the animals showed signs of toxicity | survival (outbred mice [7]; n=6): All animals survived | blood half-life [8]: ~10 h

double stranded oligonucleotide: hybrid of 5′CGTCGACGTCGAATATACGC (SEQ ID NO: 3) and complementary 5′-amino modified SEQ ID NO: 4 (chain 1 CGTCGACGTCGAATATACGC; chain 2 GCGTATATTCGACGTCGACG; complementary strand carries 5'-amino modification, further chemistry not given here)
stability of double stranded oligonucleotide [9]: stable

unmodified double stranded oligonucleotides: labeled SEQ ID NO: 11 hybridized with complementary SEQ ID NO: 12 (chain 1 CGTCGACGTCGAATATACGC; chain 2 GCGTATATTCGACGTCGACG; DNA, phosphodiester; one strand carries an unspecified label)
blood half-life [10]: 0.2 ± 0.083 h

unprotected carriers: double-stranded carrier from unmodified oligonucleotides SEQ ID NO: 7 and 8 (chain 1 ATGGCGCACGCTGGGAGA; chain 2 TCTCCCAGCGTGCGCCATC; chain 1: DNA, backbone and methylation of C not given here; chain 2: sugars from the 5' end d18 r1, all phosphodiester, methylation of C not given here)
blood half-life [8]: ca. 30 min
